According to US10092564B2, “Use of masitinib for treatment of an amyotrophic lateral sclerosis patient subpopulation” (AB SCIENCE, priority 2016, dated 2018):

Assays:
people with ALS = details: cited from earlier work
[1] = test system: patients suffering from amyotrophic lateral sclerosis (ALS); assay: Study AB10015: randomized, double-blind, placebo-controlled phase 2/3 study of masitinib in combination with riluzole versus placebo in combination with riluzole (interim and final analysis); type: in vivo, human; details: for Δ ALSFRS-R = (least squares means) change from baseline to week 48 in ALSFRS-R score: mITT; for Delta [CI] = absolute difference between subpopulations in Δ ALSFRS-R: in points
Source text: There are two distinct populations of ALS patients: a subpopulation of “normal progressors” and a subpopulation of “faster progressors”. The targeted population for primary analysis is the subpopulation of “normal progressors”. “Normal progressors” are defined as ALS patients whose progression of ALSFRS-R score before randomization is less than 1.1 point per month. This population should represent about 80% of ALS patients. The population of “normal progressors+faster progressors” comprises all ALS patients, “normal progressor” ALS patients or “faster progressor” ALS patients. “Faster progressors” are defined as ALS patients whose progression of ALSFRS-R score before randomization is greater than or equal to 1.1 points per month. Main Inclusion Criteria: • Female or male patient aged between 18 and 75 years of age, with a weight >50 kg and body mass index between 18 and 35 kg/m^2; • Familial or sporadic ALS; • Patient diagnosed with laboratory supported, clinically probable or definite ALS according to the World Federation of Neurology Revised El Escorial criteria [Brooks B R. […] For the morning dose, tablets were taken during breakfast. In case of nausea, the administration took place during lunch. For the evening dose, tablets were taken during dinner. Modified Intent-To-Treat (mITT) dataset—The mITT population will include all ITT patients with probable or definite amyotrophic lateral sclerosis who took at least one dose of study treatment (masitinib or placebo). Change from baseline to week 48 in the revised Amyotrophic Lateral Sclerosis Functional Rating Scale (ALSFRS-R) In accordance with study AB10015 protocol, an interim analysis was planned to be performed after around 50% of the information became available for analysis. At the time of the interim analysis, 192 (50%) out of a planned 381 patients who had been randomized before the 12 Feb. 2015 could have reached the week 48 visit. […] The interim analysis primary endpoint is based on the change from baseline to week 48 in ALSFRS-R. Primary analysis was performed in the mITT “normal progressor” (i.e. non-aggressive or moderately aggressive ALS) subpopulation. […] Missing values of ALSFRS-R at study visit were replaced based on the Modified Last Observation Carried Forward (mLOCF) method. Absolute change from baseline to week 48 in ALSFRS-R was estimated using a model of analysis of covariance (ANCOVA) adjusted on following factors: treatment (masitinib or placebo), and stratification criteria of: ALS patient subpopulation, progression of ALSFRS-R score (point/month) from date of first symptom to baseline, ALSFRS-R score at baseline, site of onset (bulbar versus others), age at baseline; and geographical region. Two-sided (1-alpha) confidence interval of the difference of mean change from baseline to week 48 between groups was calculated. The primary analysis used a re-randomization test. The re-randomization test, also referred to as a randomization test or permutation test, is a type of statistical significance test in which the distribution of the test statistic under the null hypothesis is obtained by calculating all possible values of the test statistic under rearrangements of the labels on the observed data points. The proportion of replicates for which the p-value of treatment factor is at least as small as the p-value of treatment factor from the original data was calculated. In this proportion the observed p-value of treatment factor is also accounted for as one replicate in numerator and denominator. This proportion is the p-value for the randomization test. […] To control overall family-wise type I error rate at the study level, analyses of efficacy was conducted in a stepwise manner (fixed sequence method). Fixed sequence method ensures that the population claimed and treated with a selected dosage will be done by controlling the global family-wise error rate at the 0.0311 level for the primary analysis. […]

Structure (SMILES): Nc1nc2ccc(OC(F)(F)F)cc2s1 [riluzole, 6-(trifluoromethoxy)benzothiazol-2-amine]
- effect on patient function (people with ALS; any of the randomized trials considered separately): no beneficial effect
- effect on bulbar and limb function (people with ALS; data of the trials combined, not on muscle strength, to be interpreted with caution): small beneficial effect
- safety of the drug (people with ALS; riluzole 100 mg, meta-analysis): not a major concern

Structure (SMILES): Cc1ccc(NC(=O)c2ccc(CN3CCN(C)CC3)cc2)cc1Nc1nc(-c2cccnc2)cs1 [Masitinib (4.5), 4-(4-methylpiperazin-1-ylmethyl)-N-[4-methyl-3-(4-pyridin-3ylthiazol-2-ylamino)phenyl]benzamide]
- Δ ALSFRS-R = (least squares means) change from baseline to week 48 in ALSFRS-R score ([1]; final AB10015, faster progressor subgroup (≥1.1 pts/m), masitinib 4.5 mg/kg/day plus riluzole, comparison with placebo arm): −17.9268
- Δ ALSFRS-R = (least squares means) change from baseline to week 48 in ALSFRS-R score ([1]; final AB10015, masitinib 4.5 mg/kg/day treated faster progressors (≥1.1 pts/m), comparison moderately aggressive vs faster progressors): −25.0567
- Δ ALSFRS-R = (least squares means) change from baseline to week 48 in ALSFRS-R score ([1]; final AB10015, masitinib 4.5 mg/kg/day treated faster progressors (≥1.1 pts/m), comparison non-aggressive vs faster progressors): −18.2920
- Δ ALSFRS-R = (least squares means) change from baseline to week 48 in ALSFRS-R score ([1]; final AB10015, masitinib 4.5 mg/kg/day treated moderately aggressive (≥0.8 to <1.1 pts/m), comparison moderately aggressive vs faster progressors): −15.7258
- Δ ALSFRS-R = (least squares means) change from baseline to week 48 in ALSFRS-R score ([1]; final AB10015, masitinib 4.5 mg/kg/day treated moderately aggressive plus aggressive (≥0.8 pts/m), comparison with non-aggressive): −15.9080
- Δ ALSFRS-R = (least squares means) change from baseline to week 48 in ALSFRS-R score ([1]; final AB10015, masitinib 4.5 mg/kg/day treated non-aggressive (<0.8 pts/m), comparison non-aggressive vs faster progressors): −7.4509
- Δ ALSFRS-R = (least squares means) change from baseline to week 48 in ALSFRS-R score ([1]; final AB10015, masitinib 4.5 mg/kg/day treated non-aggressive (<0.8 pts/m), comparison non-aggressive vs moderately aggressive plus aggressive): −7.8085
- Delta [CI] = absolute difference between subpopulations in Δ ALSFRS-R ([1]; final AB10015, masitinib 4.5 mg/kg/day treated patients, moderately aggressive (≥0.8 to <1.1 pts/m) vs faster progressors (≥1.1 pts/m), week 48, CI [−19.4226, 0.761], P=0.0687): −9.3308[−19.4226;
- Delta [CI] = absolute difference between subpopulations in Δ ALSFRS-R ([1]; final AB10015, masitinib 4.5 mg/kg/day treated patients, non-aggressive (<0.8 pts/m) vs moderately aggressive plus aggressive (≥0.8 pts/m), week 48, CI [−12.3719, −3.8271], P=0.0003): −8.0995[−12.3719;
- Δ ALSFRS-R = (least squares means) change from baseline to week 48 in ALSFRS-R score ([1]; final AB10015, non-aggressive subgroup (<0.8 pts/m), masitinib 4.5 mg/kg/day plus riluzole, comparison with placebo arm): −8.2552
- Δ ALSFRS-R = (least squares means) change from baseline to week 48 in ALSFRS-R score ([1]; final AB10015, normal progressor subgroup (<1.1 pts/m), masitinib 4.5 mg/kg/day plus riluzole, comparison with placebo arm): −8.7045
- Δ ALSFRS-R = (least squares means) change from baseline to week 48 in ALSFRS-R score ([1]; final AB10015, overall study population (normal progressor and faster progressor), masitinib 4.5 mg/kg/day plus riluzole, comparison with placebo arm): −10.7019
- conclusion on treatment effectiveness ([1]; final analysis, ALS patients with progression of ALSFRS-R score prior to treatment initiation of less than 1.1 points per month): effective treatment
- Δ ALSFRS-R = (least squares means) change from baseline to week 48 in ALSFRS-R score ([1]; final analysis, masitinib 4.5 mg/kg/day treated faster progressors (>1.1 pts/m), comparison normal vs faster progressors): −19.5855
- Δ ALSFRS-R = (least squares means) change from baseline to week 48 in ALSFRS-R score ([1]; final analysis, masitinib 4.5 mg/kg/day treated normal progressors (<1.1 pts/m), comparison normal vs faster progressors): −8.3939
- Δ ALSFRS-R = (least squares means) change from baseline to week 48 in ALSFRS-R score ([1]; final analysis, moderately aggressive subgroup (≥0.8 to <1.1 pts/m), masitinib 4.5 mg/kg/day plus riluzole, comparison with placebo arm): −11.0031
- conclusion on treatment effectiveness ([1]; final analysis, progression of ALSFRS-R score of at least 1.1 points per month (aggressive ALS)): ineffective treatment
- conclusion on treatment effectiveness ([1]; final analysis, progression of ALSFRS-R score of less than 0.8 points per month (non-aggressive ALS)): most effective
- conclusion on treatment effectiveness ([1]; final analysis, progression of ALSFRS-R score of ≥0.8 to <1.1 points per month (moderately aggressive ALS), to a lesser extent than non-aggressive): effective
- difference between treatment-arms (masitinib versus placebo) in ALSFRS-R change from baseline to week 48 ([1]; final, faster progressors subpopulation (≥1.1 points per month), 4.5 mg/kg/day): No significant difference
- average decrease in ALSFRS-R score ([1]; final, masitinib 4.5 mg/kg/day treated faster progressors, week 48): 19.6 points
- average decrease in ALSFRS-R score ([1]; final, masitinib 4.5 mg/kg/day treated normal progressors, week 48): 8.4 points
- difference in decrease of ALSFRS-R score between normal progressors and faster progressors ([1]; final, masitinib 4.5 mg/kg/day treated patients, week 48, P<0.001): 11.2 points
- treatment effect in terms of ALSFRS-R score of moderately aggressive ALS patients over aggressive ALS patients ([1]; final, masitinib treated, ≥0.8 to <1.1 vs ≥1.1 points per month): strong trend in treatment effect
- retardation in ALSFRS-R score, difference masitinib versus placebo ([1]; final, moderately aggressive ALS patients (≥0.8 to <1.1 points per month), 4.5 mg/kg/day, week 48): 2.2 points
- change in ALSFRS-R score ([1]; final, moderately aggressive ALS patients (≥0.8 to <1.1 points per month), masitinib 4.5 mg/kg/day, week 48, placebo −13.2): −11 points
- retardation in ALSFRS-R score, difference masitinib versus placebo ([1]; final, non-aggressive ALS patients (<0.8 points per month), 4.5 mg/kg/day, week 48): 3.4 points
- change in ALSFRS-R score ([1]; final, non-aggressive ALS patients (<0.8 points per month), masitinib 4.5 mg/kg/day, week 48, placebo −11.7): −8.3 points
- difference in ALSFRS-R score between masitinib and placebo ([1]; final, normal progressors (<1.1 points per month), 4.5 mg/kg/day, week 48): 3.4 points
- average decrease in ALSFRS-R score ([1]; final, normal progressors (<1.1 points per month), masitinib 4.5 mg/kg/day, week 48, placebo −12.1, P=0.0142): 8.7 points
- difference between treatment-arms (masitinib versus placebo) in ALSFRS-R change from baseline to week 48 ([1]; final, overall study population (normal progressor and faster progressor patients), 4.5 mg/kg/day, P=0.11): no significant difference
- Δ ALSFRS-R = (least squares means) change from baseline to week 48 in ALSFRS-R score ([1]; interim AB10015, faster progressor subgroup (≥1.1 points/month), masitinib 4.5 mg/kg/day plus riluzole, comparison with placebo arm): −20.77
- Δ ALSFRS-R = (least squares means) change from baseline to week 48 in ALSFRS-R score ([1]; interim AB10015, masitinib 4.5 mg/kg/day treated faster progressors (≥1.1 points/month), subpopulation comparison normal vs faster): −17.90
- Δ ALSFRS-R = (least squares means) change from baseline to week 48 in ALSFRS-R score ([1]; interim AB10015, masitinib 4.5 mg/kg/day treated normal progressors (<1.1 points/month), subpopulation comparison normal vs faster): −5.57
- Δ ALSFRS-R = (least squares means) change from baseline to week 48 in ALSFRS-R score ([1]; interim AB10015, normal progressor subgroup (<1.1 points/month), masitinib 4.5 mg/kg/day plus riluzole, comparison with placebo arm): −9.02
- difference between treatment-arms (masitinib versus placebo) in ALSFRS-R change from baseline to week 48 ([1]; interim, faster progressor subpopulation, 4.5 mg/kg/day): No significant difference
- average decrease in ALSFRS-R score ([1]; interim, masitinib 4.5 mg/kg/day treated faster progressor (aggressive ALS) patients, week 48): 17.9 points
- average decrease in ALSFRS-R score ([1]; interim, masitinib 4.5 mg/kg/day treated normal progressor (non-aggressive or moderately aggressive ALS) patients, week 48): 5.57 points
- average decrease in ALSFRS-R score ([1]; interim, normal progressors, masitinib 4.5 mg/kg/day, baseline to week 48, placebo 14.51, P=0.0032): 9.02 points
